Key:
Format in all cases: in vivo
[1] = tested on: Abutilon theophrasti (ABUTH); test: Post-emergence herbicidal action, greenhouse pot test; conditions: Abutilon theophrasti, 504 h, rated visually after about 3 weeks vs untreated controls, 100% = plants have died; for pest or weed control at 5 g/ha: read-out: Post-emergence action at 5 g/ha against ABUTH in %; for pest or weed control at 20 g/ha: read-out: Post-emergence action at 20 g/ha against ABUTH in %
Outline: (§1)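 Greenhouse-grown weeds in sandy loam were sprayed post-emergence at the one-leaf stage, 2–3 weeks after sowing. Compounds were formulated as WP or EC in water with 0.5% additive at 600 l/ha, at rates of 20 g/ha or less. Visual rating after about 3 weeks used a scale from 0% (like untreated control) to 100% (plants dead).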

[2] = tested on: Amaranthus retroflexus (AMARE); test: as above; conditions: Amaranthus retroflexus, 504 h, rated visually after about 3 weeks vs untreated controls, 100% = plants have died; for pest or weed control at 1.25 g/ha: read-out: Post-emergence action at 1.25 g/ha against AMARE in %; for pest or weed control at 20 g/ha: read-out: Post-emergence action at 20 g/ha against AMARE in %
Outline: as §1

[3] = tested on: Pharbitis purpurea (PHBPU); test: as above; conditions: Ipomoea purpurea, 504 h, read-out: Post-emergence action against PHBPU in %; for pest or weed control at 1.25 g/ha: dosage 1.25 g/ha; for pest or weed control at 5 g/ha: dosage 5 g/ha; for pest or weed control at 20 g/ha: dosage 20 g/ha
Outline: as §1

[4] = tested on: Polygonum convolvulus (POLCO); test: as above; conditions: Fallopia convolvulus, 504 h, read-out: Post-emergence action against POLCO in %
Outline: as §1

[5] = tested on: Stellaria media (STEME); test: as above
Outline: as §1

[6] = tested on: Veronica persica (VERPE); test: as above; conditions: Veronica persica, 504 h, read-out: Post-emergence action against VERPE
Outline: as §1

[7] = tested on: Viola tricolor (VIOTR); test: as above; conditions: Viola tricolor, 504 h, read-out: Post-emergence action against VIOTR
Outline: as §1

[8] = tested on: Alopecurus myosuroides (ALOMY); test: Post-emergence herbicidal action, greenhouse pot test (also comparative test C); conditions: Alopecurus myosuroides, 504 h, rated visually after about 3 weeks vs untreated controls, 100% = plants have died; for pest or weed control at 20 g/ha: read-out: Post-emergence action at 20 g/ha against ALOMY in %
Outline: (§2)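 Visual rating against untreated controls, about 3 weeks after spraying, from 0% (like control) to 100% (plants dead). Weeds were treated at the one-leaf stage, 2–3 weeks after sowing in sandy loam, with aqueous WP/EC spray containing 0.5% additive at 600 l/ha. Doses were ≤20 g/ha, or ≤5 g/ha for comparative test C.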

[9] = tested on: Echinochloa crus-galli (ECHCG); test: as above; conditions: Echinochloa crus-galli, 504 h, read-out: Post-emergence action against ECHCG in %; for pest or weed control at 20 g/ha: dosage 20 g/ha
Outline: as §2

[10] = tested on: Matricaria inodora (MATIN); test: as above; conditions: Tripleurospermum inodorum, 504 h, read-out: Post-emergence action against MATIN in %; for pest or weed control at 5 g/ha: dosage 5 g/ha; for pest or weed control at 20 g/ha: dosage 20 g/ha
Outline: as §2

[11] = tested on: Setaria viridis (SETVI); test: as above; conditions: Setaria viridis, 504 h; for pest or weed control at 20 g/ha: read-out: Post-emergence action against SETVI; for pest or weed control at 1.25 g/ha: dosage 1.25 g/ha; for pest or weed control at 1.25 g/ha / pest or weed control at 5 g/ha: read-out: Post-emergence action against SETVI in %; for pest or weed control at 5 g/ha: dosage 5 g/ha
Outline: as §2

[12] = tested on: Glycine max (GLXMA); test: Post-emergence crop plant compatibility, greenhouse pot test
Outline: (§3)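 Percent crop injury was judged by eye roughly three weeks after treatment, relative to untreated plants, where 100% meant death. Application was a post-emergence spray at the one-leaf stage, 600 l/ha water volume with 0.5% additive; letters a, b, c denote differing dose rates.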

[13] = tested on: Triticum aestivum (TRZAS); test: as above; conditions: vs untreated controls
Outline: as §3

[14] = tested on: Zea mays (ZEAMX); test: as above; conditions: vs untreated controls
Outline: as §3

[15] = tested on: Oryza sativa (ORYSA); test: Post-emergence crop plant compatibility, greenhouse pot test (also comparative test C); conditions: vs untreated controls
Outline: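 Rice and other crops sprayed post-emergence at one-leaf stage (2–3 weeks after sowing) with WP or EC formulations plus 0.5% additive at 600 l/ha water. Visual rating about 3 weeks later versus untreated controls (100% = dead, 0% = like control); suffixes a–c denote different doses.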

[16] = tested on: Avena fatua (AVEFA); test: Post-emergence herbicidal action, greenhouse pot test; conditions: Avena fatua, 504 h, 20 g/ha, rated visually after about 3 weeks vs untreated controls, 100% = plants have died, read-out: Post-emergence action at 20 g/ha against AVEFA in %
Outline: as §1

[17] = tested on: Lolium rigidum (LOLRI); test: as above; conditions: Lolium rigidum, 504 h, dosage 20 g/ha, read-out: Post-emergence action against LOLRI in %
Outline: as §1

Row | Post-emergence action against TRZAS (crop plant compatibility) ([13]; 1.25 g/ha) [%] | SMILES | pest or weed control at 5 g/ha [1] [%] | pest or weed control at 20 g/ha [1] [%] | pest or weed control at 1.25 g/ha [2] [%] | pest or weed control at 20 g/ha [2] [%] | pest or weed control at 1.25 g/ha [3] [%] | pest or weed control at 5 g/ha [3] [%] | pest or weed control at 20 g/ha [3] [%] | pest or weed control at 5 g/ha [6] [%] | pest or weed control at 20 g/ha [6] [%] | pest or weed control at 1.25 g/ha [7] [%] | pest or weed control at 5 g/ha [7] [%] | pest or weed control at 20 g/ha [7] [%] | pest or weed control at 20 g/ha [8] [%] | pest or weed control at 20 g/ha [9] [%] | pest or weed control at 5 g/ha [10] [%] | pest or weed control at 20 g/ha [10] [%] | pest or weed control at 20 g/ha [11] [%] | pest or weed control at 1.25 g/ha [11] [%] | pest or weed control at 5 g/ha [11] [%] | also measured
1 | 20 | COCCOC(=O)C(C)Oc1ccccc1Sc1cc(-n2c(=O)cc(C(F)(F)F)n(C)c2=O)c(F)cc1Cl (racemic) [I.2-1, 2-Methoxyethyl (2RS)-2-[2-({2-chloro-4-fluoro-5-[3-methyl-2,6-dioxo-4-(trifluoromethyl)-3,6-dihydropyrimidin-1(2H)-yl]phenyl}sulfanyl)phenoxy]propanoate] | 100 | 100 | 100 | 100 | 100 | 100 | 100 | 100 | 100 | 100 | 100 | 100 | 80 | 100 | 80 | 100 | 100 | 100 | 100 | pest or weed control at 5 g/ha ([4]; dosage 5 g/ha): 80%; pest or weed control at 20 g/ha ([4]; dosage 20 g/ha): 100%; Post-emergence action against STEME ([5]; 1.25 g/ha): 80%; Post-emergence action against STEME ([5]; 5 g/ha): 100%; Post-emergence action against STEME ([5]; 20 g/ha): 100%; pest or weed control at 1.25 g/ha ([6]; 1.25 g/ha): 90%; Post-emergence action against GLXMA in % ([12]; 1.25 g/ha): 0%; Post-emergence action against GLXMA in % ([12]; 5 g/ha): 10%; Post-emergence action against GLXMA in % ([12]; 20 g/ha): 20%; Post-emergence action against TRZAS (crop plant compatibility) ([13]; 5 g/ha): 20%; Post-emergence action against ZEAMX (crop plant compatibility) ([14]; 1.25 g/ha): 10%; Post-emergence action against ZEAMX (crop plant compatibility) ([14]; 5 g/ha): 10%; Post-emergence action against ZEAMX (crop plant compatibility) ([14]; 20 g/ha): 20%; Post-emergence action against ORYSA (crop plant compatibility) ([15]; 1.25 g/ha): 10%; Post-emergence action against ORYSA (crop plant compatibility) ([15]; 5 g/ha): 10%
2 | 20 | Cn1c(C(F)(F)F)cc(=O)n(-c2cc(Oc3ccccc3OCC(=O)OCC[N+](=O)[O-])c(Cl)cc2F)c1=O [I.7-183, 2-Nitroethyl (2-{2-chloro-4-fluoro-5-[3-methyl-2,6-dioxo-4-(trifluoromethyl)-3,6-dihydropyrimidin-1(2H)-yl]phenoxy}phenoxy)acetate] | 100 | 100 | 100 | 100 | 80 | 100 | 100 | 100 | 100 | 100 | 100 | 100 | 100 | 100 | 100 | 100 | 100 | 100 | 100 | pest or weed control at 1.25 g/ha ([1]; 1.25 g/ha, read-out: Post-emergence action at 1.25 g/ha against ABUTH in %): 100%; pest or weed control at 5 g/ha ([2]; 5 g/ha, read-out: Post-emergence action at 5 g/ha against AMARE in %): 100%; pest or weed control at 20 g/ha [16]: 90%; pest or weed control at 20 g/ha [17]: 80%; pest or weed control at 5 g/ha ([8]; 5 g/ha, read-out: Post-emergence action at 5 g/ha against ALOMY in %): 80%; pest or weed control at 5 g/ha ([9]; dosage 5 g/ha): 100%; pest or weed control at 1.25 g/ha ([10]; dosage 1.25 g/ha): 80%; Post-emergence action against ORYSA (crop plant compatibility) ([15]; 1.25 g/ha): 0%
